Test results: patent US20030092633A1, “Preventing desensitization of receptors” (priority 2001, published 2003)

Columns and labels:
[1] = Example III: patient who cannot be removed from bypass after coronary artery bypass grafting; assay type: in vivo; details: intravenous GSNO 2 nmol per kg per minute, after two hours
Excerpt: A person with an ejection fraction of 17% undergoes coronary artery bypass grafting. The surgeons are unable to remove the patient from bypass.

[2] = Example VI: cystic fibrosis patient with shortness of breath; assay type: in vivo; details: inhaled GSNO, 3 cc of a 10 mM solution, pH 7, 4×/day
Method: A person with cystic fibrosis enters the hospital complaining of shortness of breath. […] They are started on inhaled GSNO (3 cc of a 10 mM solution, pH 7, 4×/day).

β-adrenergic receptor = assay: Saturation binding with radiolabeled 125I-cyanopindolol in purified cardiac membrane of treated mice; assay type: in vivo
Method: Mice were treated with 10 ng/kg/day of GSNO or PBS infused continuously for 1 week through an azlet miniosmotic pump placed subcutaneously. Another set of mice was treated for 7 days with isoproterenol (30 mg/kg/day), and the fourth and final group received for 7 days, isoproterenol (30 mg/kg/day) plus GSNO (10 ng/kg/day). The mice were sacrificed and heart tissue was removed. Saturation binding with radiolabeled 1^125-cyanopindolol was carried out in purified cardiac membrane according to the procedure of Iaccarino et al, Circulation 98, 17A3-17A9 (1998).

[3] = Example IV: metastatic prostate cancer patient with bone pain unresponsive to opiates; assay type: in vivo; details: intravenous GSNO 10 nmol per kg per minute in conjunction with morphine
Excerpt: A person with metastatic prostate cancer is suffering from severe bone pain unresponsive to opiates.

[4] = Example II: patient on left ventricular assist device awaiting cardiac transplantation; assay type: in vivo; details: IV GSNO 4 nmol per kg per minute
Excerpt: A person awaiting cardiac transplantation is placed a left ventricular assist device, but continues to suffer from severe shortness of breath.

[5] = Example I: patient with class 4 congestive heart failure; assay type: in vivo
Method: A person with class 4 congestive heart failure enters the hospital with shortness of breath and bradyacardia. […] The patient is subsequently switched to IV dobutamine at 10 μg per kg per minute titrated to cardiac output. Over the following three days the drug is increased to 30 μg per kg per minute to maintain cardiac output. […] The patient undergoes bypass surgery and does well even though they have been viewed as at high risk.

GRK = GRK phosphorylation of synthetic peptide substrate with 32P-ATP (isolated system); assay type: biochemical; details: GSNO 500 μM, 50 μM, 5 μm; counts per minute; FIG. 3
Method: An isolated system was provided consisting of medium, GRK, standard synthetic peptide substrate and radiolabeled ^32P-adenosine triphosphate, i.e., ^32P-ATP, as a source of phosphate. Runs were carried out on the system without additives, and with 500 μM glutathione (GSH) present and with GSNO (500 μM) present or with GSNO (50 μM) present or with GSNO (5 μm) present. The amount of bound ^32P was measured in counts per minute (CPM).

[6] = Ratio of heart weight to body weight after 1 week continuous infusion; assay type: in vivo; details: mice, infused continuously 1 week; GSNO 10/ng/kg/day; isoproterenol 30 mg/kg/day; combination 10 mg/kg/day GSNO plus 30 mg/kg/day isoproterenol; FIG. 1
Method: Mice were treated with 10/ng/kg/day of GSNO, or with PBS (control) or with isoproterenol (at a dosage of 30 mg/kg/day) or with 10 mg/kg/day of GSNO plus 30 mg/kg/day isoproterenol, infused continuously for 1 week. The animals were sacrificed and the hearts were weighed and a ratio of heart weight to body weight was determined for each case. The results are set forth in FIG. 1 where hw:bw, i.e., the legend on the vertical axis, is the ratio of heart weight to total body weight and “ISO” means isoproterenol. […] The increase in size of heart (hypertrophy) is an advantage especially in the case of a patient on a left ventricular heart assist device awaiting heart transplant and in the case of a patient who has had heart surgery and cannot be disconnected from a heart pump without loss of heart function. The asterisks in FIG. 1 mean […] compared to control.

[7] = Example VII: patient with rheumatoid arthritis and pulmonary infiltrates; assay type: in vivo; details: intravenous ethyl nitrite 2 nmol per kg per minute
Excerpt: A person with rheumatoid arthritis and pulmonary infiltrates complains of shortness of breath and knee pain.

[8] = Example V: heroine addict, dose tapering, withdrawal symptoms; assay type: in vivo, patient; details: ethyl nitrite intravenously 2 nmol per kg per minute
Excerpt: A heroine addict enters a clinic where their dose is tapered gradually. In order to avoid symptoms of withdrawal, ethyl nitrite is started intravenously at 2 nmol per kg per minute and symptoms of withdrawal, including sweats and shaking, are ameliorated.

Compound: N[C@@H](CCC(=O)N[C@@H](CSN=O)C(=O)NCC(=O)O)C(=O)O [GSNO, S-nitrosoglutathione]
- removal from bypass [1]: successfully removed from bypass
- FEV1 (acute) [2]: does not change acutely
- blood pressure [2]: remains stable
- symptoms of shortness of breath ([2]; with corresponding improvement in FEV1): resolve over the following 48 hours
- amount of β-adrenergic receptor (β-adrenergic receptor; GSNO 10 ng/kg/day infused 1 week, no isoproterenol): 40 fmol per mg/protein
- bone pain [3]: relieves their pain
- cardiac output [4]: increase in cardiac output
- shortness of breath [4]: decrease in shortness of breath
- cardiac output ([5]; IV GSNO 2 nmol per kg per minute, on dobutamine 30 μg per kg per minute, over the following 24 hours): improved
- amount of bound 32P (incorporation of 32P into substrate) (GRK): concentration dependent reduction in incorporation of ^32P
- ratio of heart weight to body weight (hw:bw), size of heart muscle [6]: increases the size of the heart muscle

Compound: N[C@@H](CSN=O)C(=O)O [S-nitroso-cysteine]
- amount of bound 32P (incorporation of 32P into substrate) (GRK): same result of GRK inhibition and interference with substrate phosphorylation

Compound: CCON=O [ethyl nitrite]
- knee pain [7]: decrease in knee pain
- respiratory status [7]: improvement in respiratory status
- symptoms of withdrawal, including sweats and shaking [8]: ameliorated

Compound: CC(C)NCC(O)c1ccc(O)c(O)c1 (stereo not drawn) [isoproterenol, reference compound]
- amount of β-adrenergic receptor (β-adrenergic receptor; isoproterenol 30 mg/kg/day for 7 days, no GSNO): 20 fmol per milligram protein
- symptoms (shortness of breath and bradyacardia) ([5]; 10 μg per minute intravenous isoproterenol): resolution of symptoms
- ratio of heart weight to body weight (hw:bw), size of heart muscle [6]: increased the size of the heart muscle
